Read-outs that look alike come from different tables or passages of the source. One block for each compound: values may come before it. Residues, ends and D or L forms follow the SMILES beside them.
Tests used:
[1] = target: T1, Angiotensin-I converting enzyme (from rabbit lung) (Oryctolagus cuniculus, UniProt P12822); test: ACE inhibitory activity (HHL substrate, hippuric acid by HPLC); format: biochemical; conditions: for inhibition at 1000 µg/mL: concentration 1 mg/ml
T1 construct: Angiotensin-I converting enzyme (from rabbit lung); purchased Sigma Co., USA; host or cells: rabbit lung (tissue-derived)
T1 sequence (P12822 34-1310): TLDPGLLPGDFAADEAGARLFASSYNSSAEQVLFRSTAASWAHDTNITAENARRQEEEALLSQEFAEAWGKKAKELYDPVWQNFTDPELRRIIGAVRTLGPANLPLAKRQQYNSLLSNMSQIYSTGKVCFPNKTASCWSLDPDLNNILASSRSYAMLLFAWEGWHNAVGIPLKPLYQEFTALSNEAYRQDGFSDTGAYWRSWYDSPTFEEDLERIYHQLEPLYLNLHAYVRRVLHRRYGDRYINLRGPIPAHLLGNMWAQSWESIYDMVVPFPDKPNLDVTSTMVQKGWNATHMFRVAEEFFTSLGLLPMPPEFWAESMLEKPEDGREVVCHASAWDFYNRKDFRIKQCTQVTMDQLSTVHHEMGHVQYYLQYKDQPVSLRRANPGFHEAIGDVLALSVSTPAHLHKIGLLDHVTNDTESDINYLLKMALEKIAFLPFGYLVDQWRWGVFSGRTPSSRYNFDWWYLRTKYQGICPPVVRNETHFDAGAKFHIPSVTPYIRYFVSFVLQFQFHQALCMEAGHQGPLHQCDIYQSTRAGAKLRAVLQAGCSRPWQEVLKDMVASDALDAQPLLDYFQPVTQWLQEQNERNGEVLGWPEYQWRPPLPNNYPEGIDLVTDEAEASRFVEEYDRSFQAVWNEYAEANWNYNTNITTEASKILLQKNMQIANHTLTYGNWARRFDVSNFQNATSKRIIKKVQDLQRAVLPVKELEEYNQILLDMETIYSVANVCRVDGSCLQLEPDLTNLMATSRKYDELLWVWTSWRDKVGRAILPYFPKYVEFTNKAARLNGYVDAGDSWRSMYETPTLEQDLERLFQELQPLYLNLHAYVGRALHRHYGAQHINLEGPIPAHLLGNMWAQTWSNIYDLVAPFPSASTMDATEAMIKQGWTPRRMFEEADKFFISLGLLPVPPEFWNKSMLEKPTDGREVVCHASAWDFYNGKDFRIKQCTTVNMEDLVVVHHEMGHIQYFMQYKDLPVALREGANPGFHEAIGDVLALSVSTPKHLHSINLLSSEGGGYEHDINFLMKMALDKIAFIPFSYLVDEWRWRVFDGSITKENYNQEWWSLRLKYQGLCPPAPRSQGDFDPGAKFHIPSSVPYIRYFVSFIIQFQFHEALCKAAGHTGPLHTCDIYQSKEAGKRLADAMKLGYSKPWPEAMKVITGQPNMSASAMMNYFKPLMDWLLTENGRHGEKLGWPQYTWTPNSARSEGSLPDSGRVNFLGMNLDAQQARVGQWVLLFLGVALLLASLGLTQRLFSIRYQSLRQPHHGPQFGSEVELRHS
Description: (§1) Rice wine lees was obtained from Guangdong Shunde Winery Co., Ltd., Shunde, China. Angiotensin-I converting enzyme (from rabbit lung) and N-Hippuryl-His-Leu hydrate (HHL) were purchased from Sigma Co., USA. Other chemicals and reagents were of analytical grade.
Angiotensin-I converting enzyme inhibitory activity was measured using the method described in Wu et al. ([29]) with some modifications. For each reaction, 10 μl of 0.25 U/ ml ACE solution (prepared in 0.01 M potassium phosphate buffer containing 0.5 M NaCl, pH 7.0) was mixed with 10 μl of inhibitor solution and incubated for 5 min at 37°C. Subsequently, 30 μl of HHL solution (5 mM in 0.1 M sodium borate buffer containing 0.3 M NaCl, pH 8.3) was added, followed by incubation at 37°C for 1 h. The reaction was terminated with the addition of 70 μl 1 M HCl before subsequent assays were performed. For the control group, 10 μl ACE solution and 80 μl 1 M HCl were simultaneously added to the mixture. A blank sample was prepared by replacing the inhibitor solution with 10 μl borate buffer. […] Angiotensin-I converting enzyme activity (%) was calculated according to the following equation:
ACE inhibition(%) = (A1-A2)-B/(A1-A2)×100%
Where A1, A2, and B are peak areas corresponding to Hippuric Acid in the control group, the blank and the sample, respectively.

[2] = system: pepsin, chymotrypsin; test: Stability of peptides during in vitro digestion by gastrointestinal enzymes (ACEi activity after digestion); format: in vitro ADME; conditions: in vitro digestion by pepsin and chymotrypsin
Description: Peptide stability was measured according to the methods described in Chen et al. ([30]) with some modifications. For this assay, 2% (w/w) pepsin was dissolved in a KCl–HCl buffer (0.1 mM) adjusted to pH 2.0, and 2% (w/w) chymotrypsin was dissolved in a KCl–NaOH (0.1 mM) buffer adjusted to pH 7.0. Peptides were dissolved at 1 mg/ml in pepsin or chymotrypsin solutions and incubated at 37°C for 4 h. Reactions were terminated by boiling for 15 min. After centrifugation at 4,000 rpm for 15 min, the supernatant was collected, pH was adjusted to 8.0, and samples were assayed for ACEi activity. The supernatant was also analyzed using the previously described RP-HPLC conditions to evaluate changes to the peptides after in vitro digestion.
Control groups were prepared by incubating inactivated pepsin and/or chymotrypsin (boiled for 15 min) with the sample peptides. After incubation, the mixture was processed and analyzed as described.

[3] = target: T2, ACE (Oryctolagus cuniculus, UniProt P12822); test: Stability of peptides against ACE (pre-incubation with ACE, then ACEi assay); format: in vitro ADME, rabbit; conditions: for category of ACEi peptide from ACE pre-incubation test: true inhibitor / real substrate / pro-drug type
T2 construct: Angiotensin-I converting enzyme (from rabbit lung); purchased Sigma Co., USA; host or cells: rabbit lung (tissue-derived)
T2 sequence (P12822 34-1310): T1 sequence (P12822 34-1310)
Description: as §1
The stability of peptides against ACE was assayed according to the methods of Deng ([31]), with some modifications. For each reaction, 30 μl of peptides (2 mg/ml) was combined with 30 μl 0.25 U/ml ACE solution and incubated at 37°C for 30 min. Angiotensin-I converting enzyme was then inactivated by boiling the solution for 10 min. As described in section Measurement of ACEi Activity, 20 μl of each peptide sample was used for the detection of ACEi activity.

[4] = target: T2, ACE; test: Kinetic parameters of ACE inhibition (Lineweaver-Burk plots); format: biochemical, rabbit; conditions: for type of ACE inhibition: Lineweaver-Burk plots, peptides at 0.05 or 0.1 mg/ml
Description: Angiotensin-I converting enzyme inhibition of purified peptides was determined using Lineweaver–Burk plots according to reported methods ([32]). Samples were added at two fixed concentrations to each reaction mixture, and enzyme activity was measured for different concentrations of the substrate HHL according to the ACE inhibition assay. The curves were described by 1/area and 1/[S], and the kinetics of ACE inhibitors were estimated by comparing the resulting curves.
To clarify the kinetics of inhibition, Lineweaver–Burk plots were generated. Various concentrations of substrate were incubated with ACE solution in the absence or presence of RWLE peptides at 0.05 or 0.1 mg/ml.

[5] = peptide concentration 0.05 mg/ml
[6] = peptide concentration 0.1 mg/ml

SMILES: CC[C@H](C)[C@H](NC(=O)[C@@H](N)CC(C)C)C(=O)N[C@H](C(=O)N1CCC[C@H]1C(=O)N[C@@H](CCC(N)=O)C(=O)N[C@@H](Cc1c[nH]cn1)C(=O)O)[C@@H](C)CC [H5, LIIPQH] (H-LIIPQH-OH; N-terminus and C-terminus assumed)
- inhibition at 1000 µg/mL [1]: 89.3%
- stability against gastrointestinal enzymes [2]: stable within the gastrointestinal environment
- stability against gastrointestinal enzymes ([2]; listed as LIIPQH): stable
- stability against ACE [3]: stable
- category of ACEi peptide from ACE pre-incubation test [3]: pro-drug ACE-inhibitors
- type of ACE inhibition [4]: non-competitive inhibitors (mostly mixed-type)
- type of ACE inhibition ([4]; listed as LIIPQH): mixed-type ACE inhibitors
- Vm [4, 5]: 0.120 ΔA/min
- Vm [4, 6]: 0.070 ΔA/min

- inhibition at 1000 µg/mL [1]: 91.7%
- IC50 ([1]; products of each purification step (natural, from RWLE)): 83.9 µM
- IC50 ([1]; synthetic peptides): 78.6 µM
- stability against gastrointestinal enzymes ([2]; listed as LIIPEH): stable
- stability against ACE [3]: stable
- IC50 ([3]; control (co-incubation with inactive ACE), read-out: IC50 without pre-incubation (converted)): 51.3 µM
- IC50 ([3]; pre-incubation with ACE, 37°C 30 min, read-out: IC50 with pre-incubation (converted)): 70.7 µM
- category of ACEi peptide from ACE pre-incubation test [3]: pro-drug ACE-inhibitors
- type of ACE inhibition ([4]; listed as LIIPEH): mixed-type ACE inhibitors
- Vm [4, 5]: 0.099 ΔA/min
- Vm [4, 6]: 0.049 ΔA/min
SMILES: CC[C@H](C)[C@H](NC(=O)[C@@H](N)CC(C)C)C(=O)N[C@H](C(=O)N1CCC[C@H]1C(=O)N[C@@H](CCC(=O)O)C(=O)N[C@@H](Cc1c[nH]cn1)C(=O)O)[C@@H](C)CC [H6, LIIPEH] (H-LIIPEH-OH; N-terminus and C-terminus assumed)
- stability against gastrointestinal enzymes [2]: stable within the gastrointestinal environment
- type of ACE inhibition [4]: non-competitive inhibitors (mostly mixed-type)

- IC50 ([1]; synthetic peptides): 1780 µM
SMILES: CC[C@H](C)[C@H](N)C(=O)N[C@H](C(=O)N1CCC[C@H]1C(=O)N[C@@H](CCC(N)=O)C(=O)N[C@@H](Cc1c[nH]cn1)C(=O)O)[C@@H](C)CC [IIPQH] (H-IIPQH-OH; N-terminus and C-terminus assumed)

- IC50 ([1]; synthetic peptides): 1410 µM
SMILES: CC[C@H](C)[C@H](NC(=O)[C@@H](N)CC(C)C)C(=O)N[C@H](C(=O)N1CCC[C@H]1C(=O)N[C@@H](CCC(N)=O)C(=O)N[C@@H](Cc1c[nH]cn1)C(=O)N[C@@H](Cc1c[nH]cn1)C(=O)O)[C@@H](C)CC [LIIPQHH] (H-LIIPQHH-OH; N-terminus and C-terminus assumed)

- IC50 ([1]; synthetic peptides): 1230 µM
SMILES: CC[C@H](C)[C@H](NC(=O)[C@@H](N)CC(C)C)C(=O)N[C@H](C(=O)N1CCC[C@H]1C(=O)N[C@@H](CCC(N)=O)C(=O)N[C@@H](Cc1c[nH]cn1)C(=O)N[C@@H](Cc1ccc(O)cc1)C(=O)O)[C@@H](C)CC [LIIPQHY] (H-LIIPQHY-OH; N-terminus and C-terminus assumed)

- IC50 ([1]; synthetic peptides): 2390 µM
SMILES: CC[C@H](C)[C@H](NC(=O)[C@@H](N)CC(C)C)C(=O)N[C@H](C(=O)N1CCC[C@H]1C(=O)N[C@@H](CCC(N)=O)C(=O)O)[C@@H](C)CC [LIIPQ] (H-LIIPQ-OH; N-terminus and C-terminus assumed)

- IC50 ([1]; synthetic peptides): 2040 µM
SMILES: CC[C@H](C)[C@H](NC(=O)[C@@H](N)CC(C)C)C(=O)N[C@H](C(=O)N1CCC[C@H]1C(=O)O)[C@@H](C)CC [LIIP] (H-LIIP-OH; N-terminus and C-terminus assumed)

- IC50 ([1]; synthetic peptides): 995 µM
SMILES: CC[C@H](C)[C@H](NC(=O)[C@H](CC(C)C)NC(=O)[C@@H](N)CC(C)C)C(=O)N[C@H](C(=O)N1CCC[C@H]1C(=O)N[C@@H](CCC(N)=O)C(=O)N[C@@H](Cc1c[nH]cn1)C(=O)O)[C@@H](C)CC [LLIIPQH] (H-LLIIPQH-OH; N-terminus and C-terminus assumed)

From PMC8460919, “Novel Angiotensin-I Converting Enzyme Inhibitory Peptides Isolated From Rice Wine Lees: Purification, Characterization, and Structure-Activity Relationship” (Frontiers in Nutrition, 2021)
